Measured values published in publication PMC7751257 (mBio, 2020).
Where two headings read alike, the source gives them in different places. Bridge positions count the residues as written; N and C are the ends. Square brackets hold non-standard residues; d marks the D form. Peptide text beside a SMILES is read from it. S5 = C=CCCC[C@](C)(N)C(=O)O

How the values were obtained:
[1] = test system: SARS-CoV-2 (US_WA-1/2020); format: cell-based
[2] = test system: pseudovirus NL4-3ΔEnv-NanoLuc/SARS-CoV-2; conditions: 48 h
[3] = test system: pseudovirus NL4-3ΔEnv-NanoLuc/SARS-CoV-2; conditions: 24 h
[4] = α-Helical propensity by CD spectroscopy; format: physicochemical; conditions: 0.125 mg/ml peptide in 10 mM PBS, 25°C, 185 to 260 nm, calculated with CDNN software
[5] = test system: pseudovirus NL4-3.Luc.R-E-/VSV-G; conditions: 48 h
[6] = test system: pseudovirus NL4-3.Luc.R-E-/VSV-G; conditions: 24 h
[7] = Proteolytic stability in human plasma; conditions: pooled human plasma, pH 7.4, 2 μM, 37°C, time points 0, 10, 30, 60, 120 min, LC-MS/MS, duplicate
[8] = reported for the control stapled peptide; cited from earlier work

SMILES | IC100 [1] [µM] | IC50 [2] [nM] | IC50 [3] [µM] | % α-Helicity (185-260 nm) [4] [%] | IC50 [5] [µM] | IC50 [6] [µM] | half-life (T1/2) in human plasma [7] [min] | % helicity [8] [%]
CC[C@H](C)[C@H](NC(=O)[C@@H](NC(C)=O)[C@@H](C)O)C(=O)N[C@@H](CCC(=O)O)C(=O)N[C@@H](CCC(=O)O)C(=O)N[C@@H](CCC(N)=O)C(=O)N[C@@H](C)C(=O)N[C@@H](CCCCN)C(=O)N[C@H](C(=O)N[C@@]1(C)CCC/C=C\CCC[C@@](C)(C(=O)N[C@@H](CC(N)=O)C(=O)N[C@@H](Cc2c[nH]cn2)C(=O)N[C@@H](CCC(=O)O)C(=O)N[C@@H](C)C(=O)N[C@@H](CCC(=O)O)C(=O)N[C@@H](CC(=O)O)C(=O)N[C@@H](CC(C)C)C(=O)N[C@@H](Cc2ccccc2)C(=O)N[C@@H](Cc2ccc(O)cc2)C(=O)N[C@@H](CCC(N)=O)C(=O)N[C@@]2(C)CCC/C=C\CCC[C@@](C)(C(=O)N[C@@H](Cc3c[nH]c4ccccc34)C(=O)N[C@@H](CC(N)=O)C(N)=O)NC(=O)[C@H](C)NC(=O)[C@H](CC(C)C)NC(=O)[C@H](CO)NC2=O)NC(=O)[C@H](CCCCN)NC(=O)[C@H](CC(=O)O)NC(=O)[C@H](CC(C)C)NC1=O)[C@@H](C)O [NYBSP-1] (Ac-TIEEQAKT[S5]LDK[S5]NHEAEDLFYQ[S5]SLA[S5]WN-NH2; staple (Z) 9-13, 24-28) | 17.2 | 2200 ± 140 | 4.1 ± 0.26 | 94 | > 27.5 | > 27.5 |  | 
CC(C)[N+](C)(CCOC(=O)C1c2ccccc2Oc2ccccc21)C(C)C [Propantheline bromide, propantheline bromide] |  |  |  |  |  |  | 8 | 
CC(=O)N[C@@H](CC(=O)O)C(=O)N[C@@H](CC(N)=O)C(=O)N[C@@H](CCC(=O)O)C(=O)N[C@@]1(C)CCC/C=C\CCC[C@@](C)(C(=O)N[C@@H](Cc2ccc(O)cc2)C(=O)N[C@@H](Cc2c[nH]cn2)C(=O)N[C@@H](CC(C)C)C(=O)N[C@@]2(C)CCC/C=C\CCC[C@@](C)(C(=O)N[C@H](C(N)=O)C(C)C)NC(=O)[C@H](CC(N)=O)NC(=O)[C@H](Cc3ccccc3)NC(=O)[C@H](Cc3ccccc3)NC2=O)NC(=O)[C@H](Cc2ccccc2)NC(=O)[C@H](Cc2c[nH]c3ccccc23)NC(=O)[C@H](CCC(N)=O)NC1=O [StRIP16] (Ac-DNE[S5]QWF[S5]YHL[S5]FFN[S5]V-NH2; staple (Z) 4-8, 12-16) |  | > 43500 | > 43.5 |  | > 43.5 | > 43.5 |  | 38
